In the supplement of paper PMC10307832:

What was measured:
Assay in all cases: relative viability (nuclei count vs DMSO), 5 days (fraction); higher = more cells survive
Axitinib + Tozasertib = compound: CNC(=O)c1ccccc1Sc1ccc2c(/C=C/c3ccccn3)n[nH]c2c1 [Axitinib] + Cc1cc(Nc2cc(N3CCN(C)CC3)nc(Sc3ccc(NC(=O)C4CC4)cc3)n2)n[nH]1 [Tozasertib] (partner 0.1 µM)
How it was run: (§1)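 Nuclei were stained with Hoechst during a one-step fixation (final 0.05% Triton X-100, 1% formaldehyde, 1 ug/ml Hoechst) carried out 5 days after dosing, then counted on 4× images. The cells, lung cancer lines in 1536-well plates, had been dosed by pin tool the day after seeding with one drug alone or a fixed anchor-drug dose plus five library-drug doses (not always all listed) in √10 steps. Relative viability is the nuclei count in treated wells divided by that in vehicle wells, and each value is the median of duplicate plates.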

Bemcentinib + Navitoclax = compound: Nc1nc(Nc2ccc3c(c2)CC[C@@H](N2CCCC2)CC3)nn1-c1cc2c(nn1)-c1ccccc1CCC2 [Bemcentinib] + CC1(C)CCC(c2ccc(Cl)cc2)=C(CN2CCN(c3ccc(C(=O)NS(=O)(=O)c4ccc(N[C@H](CCN5CCOCC5)CSc5ccccc5)c(S(=O)(=O)C(F)(F)F)c4)cc3)CC2)C1 [Navitoclax] (partner 0.5 µM)
How it was run: as §1

Axitinib + Bortezomib = compound: CNC(=O)c1ccccc1Sc1ccc2c(/C=C/c3ccccn3)n[nH]c2c1 [Axitinib] + CC(C)C[C@H](NC(=O)[C@H](Cc1ccccc1)NC(=O)c1cnccn1)B(O)O [Bortezomib] (partner 0.002 µM)
How it was run: as §1

Bemcentinib + Pemetrexed = compound: Nc1nc(Nc2ccc3c(c2)CC[C@@H](N2CCCC2)CC3)nn1-c1cc2c(nn1)-c1ccccc1CCC2 [Bemcentinib] + Nc1nc2[nH]cc(CCc3ccc(C(=O)N[C@@H](CCC(=O)O)C(=O)O)cc3)c2c(=O)[nH]1 [Pemetrexed] (partner 0.2 µM)
How it was run: as §1

Cell Line | relative viability (Axitinib + Tozasertib; first compound 0.005 µM) | relative viability (Axitinib + Tozasertib; first compound 0.01581 µM) | relative viability (Axitinib + Tozasertib; first compound 0.05 µM) | relative viability (Axitinib + Tozasertib; first compound 0.1581 µM) | relative viability (Axitinib + Tozasertib; first compound 0.5 µM) | relative viability (Bemcentinib + Navitoclax; first compound 0.04 µM) | relative viability (Bemcentinib + Navitoclax; first compound 0.1265 µM) | relative viability (Bemcentinib + Navitoclax; first compound 0.4 µM) | relative viability (Bemcentinib + Navitoclax; first compound 1.265 µM) | relative viability (Bemcentinib + Navitoclax; first compound 4 µM) | relative viability (Axitinib + Bortezomib; first compound 0.005 µM) | relative viability (Axitinib + Bortezomib; first compound 0.01581 µM) | relative viability (Axitinib + Bortezomib; first compound 0.05 µM) | relative viability (Axitinib + Bortezomib; first compound 0.1581 µM) | relative viability (Axitinib + Bortezomib; first compound 0.5 µM) | relative viability (Bemcentinib + Pemetrexed; first compound 0.04 µM) | relative viability (Bemcentinib + Pemetrexed; first compound 0.1265 µM) | relative viability (Bemcentinib + Pemetrexed; first compound 0.4 µM) | relative viability (Bemcentinib + Pemetrexed; first compound 1.265 µM) | relative viability (Bemcentinib + Pemetrexed; first compound 4 µM)
NCI-H838 | 0.305 | 0.263 | 0.265 | 0.323 | 0.323 | 1.15 | 1.28 | 1.36 | 1.13 | 1.36 | 0.961 | 1.01 | 0.902 | 0.726 | 0.965 | 0.229 | 0.267 | 0.272 | 0.257 | 0.262
NCI-H1755 | 0.608 | 0.541 | 0.605 | 0.632 | 0.617 | 1.05 | 1.04 | 1.03 | 1.11 | 1.08 | 0.973 | 0.973 | 0.932 | 0.971 | 0.967 | 0.418 | 0.498 | 0.565 | 0.569 | 0.455
EMC-BAC-2 | 0.301 | 0.299 | 0.272 | 0.391 | 0.412 | 1.15 | 1.35 | 1.27 | 1.2 | 1.23 | 1.13 | 1.04 | 1.09 | 1.13 | 1.07 | 0.442 | 0.475 | 0.48 | 0.416 | 0.419
EKVX | 0.41 | 0.492 | 0.358 | 0.347 | 0.341 | 0.859 | 1.01 | 1.03 | 0.804 | 1.1 | 1.13 | 1.08 | 0.98 | 1.03 | 0.997 | 0.355 | 0.42 | 0.422 | 0.401 | 0.333
NCI-H647 | 0.383 | 0.354 | 0.264 | 0.566 | 0.516 | 1.14 | 1.36 | 1.15 | 1.03 | 1.09 | 1.04 | 1.1 | 0.94 | 1.01 | 1.08 | 0.175 | 0.164 | 0.199 | 0.156 | 0.152
LU99A | 0.27 | 0.266 | 0.264 | 0.369 | 0.419 | 0.766 | 0.93 | 0.697 | 0.755 | 0.821 | 1.1 | 1.09 | 1.13 | 1.12 | 1.12 | 0.139 | 0.321 | 0.241 | 0.154 | 0.16
NCI-H1734 | 0.278 | 0.268 | 0.274 | 0.241 | 0.25 | 0.872 | 0.986 | 0.94 | 0.886 | 0.875 | 0.935 | 0.974 | 0.879 | 1.01 | 1.06 | 0.419 | 0.459 | 0.398 | 0.402 | 0.448
HARA | 0.125 | 0.0963 | 0.0847 | 0.106 | 0.123 | 1.18 | 1.18 | 1.2 | 1.13 | 1.16 | 1.09 | 1.07 | 1.1 | 1.13 | 1.14 | 0.236 | 0.243 | 0.241 | 0.245 | 0.196
